Among the data in BindingDB's records for doi:10.1016/S0960-894X(00)80680-0 (1993) are IC50 values, retold here.

In general, IC50 refers to the concentration needed to halve the response being measured. Read a high IC50 as weaker potency in that assay.

The test in a line: Displacement of [125I]Bolton-Hunter-CCK-8 from guinea pig cortex Cholecystokinin type B receptor. A general note: Displacement assays read how much labelled ligand stays bound in the presence of the test substance.
Compound `CN(C(=O)[C@H](CC(=O)O)NNC[C@H](CCCCNC(=O)C=Cc1ccc(O)cc1)NC(=O)[C@H](Cc1c[nH]c2ccccc12)NC(=O)OC(C)(C)C)[C@@H](Cc1ccccc1)C(N)=O` [3-(N'-{(S)-2-[(S)-2-tert-Butoxycarbonylamino-3-(1H-indol-3-yl)-propionylamino]-6-[(Z)-3-(4-hydroxy-phenyl)-acryloylamino]-hexyl}-hydrazino)-N-((S)-1-carbamoyl-2-phenyl-ethyl)-N-methyl-succinamic acid] came in with a concentration for half-maximal inhibition (IC50) of 5 µM. That is a single-digit micromolar value.
As for `CC(C)(C)OC(=O)N[C@@H](Cc1c[nH]c2ccccc12)C(=O)N[C@@H](CCCCNC(=O)C=Cc1ccc(O)cc1)CNN[C@@H](CC(=O)O)C(=O)N[C@@H](Cc1ccccc1)C(N)=O` [3-(N'-{(S)-2-[(S)-2-tert-Butoxycarbonylamino-3-(1H-indol-3-yl)-propionylamino]-6-[(Z)-3-(4-hydroxy-phenyl)-acryloylamino]-hexyl}-hydrazino)-N-((S)-1-carbamoyl-2-phenyl-ethyl)-succinamic acid], the figure is 3.8 µM.
As for `Cc1ccccc1NC(=O)NCCCC[C@H](NC(=O)[C@H](Cc1c[nH]c2ccccc12)NC(=O)OC(C)(C)C)C(=O)N[C@H](CNN[C@@H](Cc1ccccc1)C(N)=O)CC(=O)O` [3-{2-[2-tert-Butoxycarbonylamino-3-(1H-indol-3-yl)-propionylamino]-6-[(S)-3-((1S,2S)-o-tolyl)-ureido]-hexanoylamino}-4-[N'-((S)-1-carbamoyl-2-phenyl-ethyl)-hydrazino]-butyric acid], the figure is greater than 10 µM; as for `Cc1ccccc1NC(=O)NCCCC[C@H](NNC[C@H](Cc1c[nH]c2ccccc12)NC(=O)OC(C)(C)C)C(=O)N[C@@H](CC(=O)O)C(=O)N[C@@H](Cc1ccccc1)C(N)=O` [(S)-3-[(S)-2-[N'-((S)-2-tert-Butoxycarbonylamino-3-1H-indol-3-yl-propyl)-hydrazino]-6-(3-o-tolyl-ureido)-hexanoylamino]-N-((S)-1-carbamoyl-2-phenyl-ethyl)-succinamic acid], 2.5 µM.
Take `CC(C)(C)OC(=O)N[C@@H](Cc1c[nH]c2ccccc12)C(=O)N[C@@H](CCCCNC(=O)C=Cc1ccc(O)cc1)C(=O)N[C@H](CNN[C@@H](Cc1ccccc1)C(N)=O)CC(=O)O` [(S)-3-{2-[2-tert-Butoxycarbonylamino-3-(1H-indol-3-yl)-propionylamino]-6-[(S)-3-((S)-4-hydroxy-phenyl)-acryloylamino]-hexanoylamino}-4-[N'-((S)-1-carbamoyl-2-phenyl-ethyl)-hydrazino]-butyric acid]: the IC50 was found to be 7 µM.
The figure for `Cc1ccccc1NC(=O)NCCCC[C@@H](CNN[C@@H](CC(=O)O)C(=O)N(C)[C@@H](Cc1ccccc1)C(N)=O)NC(=O)[C@H](Cc1c[nH]c2ccccc12)NC(=O)OC(C)(C)C` [(S)-3-{N'-[2-((3aS,7S)-2-tert-Butoxycarbonylamino-3-1H-indol-3-yl-propionylamino)-6-(3-o-tolyl-ureido)-hexyl]-hydrazino}-N-((S)-1-carbamoyl-2-phenyl-ethyl)-N-methyl-succinamic acid] is greater than 10 µM.
